Measurements: patent USRE38257E1, “Piperdine derivatives and hypotensives containing the same” (Ajinomoto Co., Inc., priority 1988, dated 2003)

Tested on: male spontaneously hypertensive rats
Experiment: Decrease in systolic blood pressure in spontaneously hypertensive rats after intravenous bolus injection, indirect (tail-cuff) method
Type: in vivo, rat
Settings: for Decrease in systolic blood pressure (mmHg) time after administration (hour) 0.5: 0.5 hour after administration; for Decrease in systolic blood pressure (mmHg) time after administration (hour) 4: 4 hours after administration
Method: As test animals, four male spontaneously hypertensive rats (weight 400 to 440 g) that were sufficiently adapted for feeding and in which hypertension was confirmed were used.
Physiological saline aqueous solution containing 2.5% Nicolle and 2.5% ethanol of sample was intravenously administered by bolus injection at a dose of 1 ml per 1 kg of body weight. Systolic blood pressure after administration was measured by the indirect (tail-cuff) method.

Molecule | Decrease in systolic blood pressure (mmHg) time after administration (hour) 0.5 (dose 10 mg/kg i.v. bolus) [mmHg] | Decrease in systolic blood pressure (mmHg) time after administration (hour) 4 (dose 10 mg/kg i.v. bolus) [mmHg] | other results
Cl.NS(=O)(=O)c1ccc(C=CCN2CCC(=C3c4ccccc4C=Cc4ccccc43)CC2)cc1 [Example 386, 1-(4-Aminosulfonylcinnamyl)-4-(5H-Dibenzo[a,d]cyclohepten-5-ylidene)piperidine hydrochloride] | −83 | −96 | 
C1=Cc2ccccc2C(=C2CCN(Cc3cccc4ccccc34)CC2)c2ccccc21.Cl [Example 214, 4-(5H-Dibenzo[a,d]cyclohepten-5-ylidene)-1-(1-naphthylmethyl)piperidine hydrochloride] | −126 | −21 | 
CC(=O)N1CCC(CCCN2CCC(=C3c4ccccc4C=Cc4ccccc43)CC2)CC1.Cl [Example 308, 1-(N-acetyl-4-piperidinyl)-3-(4-(5H-dibenzo[a,d]cyclohepten-5-ylidene)-1-piperidinyl)propane hydrochloride] |  |  | Decrease in systolic blood pressure (mmHg) time after administration (hour) 0.5 (dose 3 mg/kg i.v. bolus): −27 mmHg; Decrease in systolic blood pressure (mmHg) time after administration (hour) 4 (dose 3 mg/kg i.v. bolus): −5 mmHg
COc1ccc(CN2CCC(=C3c4ccccc4C=Cc4ccccc43)CC2)cc1OC [Example 175, 4-(5H-Dibenzo[a,d]cyclohepten-5-ylidene)-1-(3,4-dimethoxybenzyl)piperidine] | −87 | −1 | 
COc1cc(CCCN2CCC(=C3c4ccccc4C=Cc4ccccc43)CC2)cc(OC)c1OC.Cl.Cl [Example 317, 3-(4-(5H-Dibenzo[a,d]cyclohepten-5-ylidene)-1-piperidinyl)-1-(3,4,5-trimethoxyphenyl)propane dihydrochloride] | −118 | −14 | 
CCCCCCCCCCCN1CCC(=C2c3ccccc3C=Cc3ccccc32)CC1.Cl [Example 136, 4-(5H-Dibenzo[a,d]cyclohepten-5-ylidene)-1-undecylpiperidine hydrochloride] | −100 | −40 | 
2,6-Dimethyl-4-(4-(4-(5H-Dibenzo[a,d]cyclohepten-5-ylidene)-1-piperidinyl)-1-butyl)-5-methylpyrydine-3,5-dicarboxylate dihydrochloride [Example 288] | −92 | −14 | 
Cl.Clc1ccccc1CN1CCC(=C2c3ccccc3C=Cc3ccccc32)CC1 [Example 128, 1-(2-Chlorobenzyl)-4-(5H-Dibenzo[a,d]cyclohepten-5-ylidene)piperidine hydrochloride] | −129 | −8 | 
CCCCCCCCCCCCN1CCC(=C2c3ccccc3C=Cc3ccccc32)CC1.Cl [Example 4, 4-(5H-Dibenzo[a,d]cyclohepten-5-ylidene)-1-dodecylpiperidine hydrochloride] | −76 | 0 | 
CCCCCCCCCCN1CCC(=C2c3ccccc3CCc3ccccc32)CC1.Cl [Example 185, 1-Decyl-4-(10,11-Dihydro-5H-dibenzo[a,d]cyclohepten-5-ylidene)piperidine hydrochloride] | −66 | −10 | 
Cl.N#CC(CCCCl)(CCCN1CCC(=C2c3ccccc3C=Cc3ccccc32)CC1)c1ccccc1 (centres unmarked) [Example 52, 2-(3-Chloropropyl)-5-(4-(5H-dibenzo[a,d]cyclohepten-5-ylidene)-1-piperidinyl)-2-phenylvaleronitrile hydrochloride] | −23 | −9 | 
Cl.O=[N+]([O-])c1ccc2c(c1)CC(CN1CCC(=C3c4ccccc4C=Cc4ccccc43)CC1)C2 (centres unmarked) [Example 332, 2-(4-(5H-Dibenzo[a,d]cyclohepten-5-ylidene)-1-piperidinyl)methyl-5′-nitroindan hydrochloride] | −111 | −57 | 
5-(4-(5H-Dibenzo[a,d]cyclohepten-5-ylidene)-1-piperidinyl)-2-phenylvaleronitrile hydrochloride [Example 121] | −42 | −19 | 
N-(2-(5H-Dibenzo[a,d]cyclohepten-5-ylidene)-1-piperidinyl)ethyl isonicotinamide hydrochloride [Example 244] | −19 | 4 | 
Cc1cccc(CN2CCC(=C3c4ccccc4C=Cc4ccccc43)CC2)c1.Cl [Example 132, 4-(5H-Dibenzo[a,d]cyclohepten-5-ylidene)-1-(3-methylbenyl)piperidine hydrochloride] | −106 | −5 | 
Cl.O=[N+]([O-])c1cccc2c1CC(CCN1CCC(=C3c4ccccc4C=Cc4ccccc43)CC1)C2 (centres unmarked) [Example 354, 2-(2-(4-(5H-Dibenzo[a,d]cyclohepten-5-ylidene)-1-piperidinyl)-1-ethyl)-4′-nitroindan hydrochloride] |  |  | Decrease in systolic blood pressure (mmHg) time after administration (hour) 0.5 (dose 3 mg/kg i.v. bolus): −89 mmHg; Decrease in systolic blood pressure (mmHg) time after administration (hour) 4 (dose 3 mg/kg i.v. bolus): −8 mmHg
4-(5H-Dibenzo[a,d]cyclohepten-5-ylidene)-1-(4-N-imidazolylmethyl)cinnamyl)piperidine dihydroxybutane hydrochloride [Example 210] |  |  | Decrease in systolic blood pressure (mmHg) time after administration (hour) 0.5 (dose 1 mg/kg i.v. bolus): −78 mmHg; Decrease in systolic blood pressure (mmHg) time after administration (hour) 4 (dose 1 mg/kg i.v. bolus): −69 mmHg
Cl.Cl.Nc1ccc(CN2CCC(=C3c4ccccc4C=Cc4ccccc43)CC2)cc1 [Example 140, 1-(4-Aminobenzy)-4-(5H-Dibenzo[a,d]cyclohepten-5-ylidene)piperidine dihydrochloride] |  |  | Decrease in systolic blood pressure (mmHg) time after administration (hour) 0.5 (dose 3 mg/kg i.v. bolus): −113 mmHg; Decrease in systolic blood pressure (mmHg) time after administration (hour) 4 (dose 3 mg/kg i.v. bolus): −101 mmHg
Cl.O=C(C=Cc1ccccc1)Nc1ccccc1SCCCN1CCC(=C2c3ccccc3C=Cc3ccccc32)CC1 [Example 37, 1-(3-(2-Cinnamoylaminophenylthio)-1-propyl)-4-(5H-dibenzo[a,d]-cyclohepten-5-ylidene)piperidine hydrochloride] | −78 | −36 | 
Cl.O=[N+]([O-])c1ccccc1CCCN1CCC(=C2c3ccccc3C=Cc3ccccc32)CC1 [Example 250, 3-(4-(5H-Dibenzo[a,d]cyclohepten-5-ylidene)-1-piperidinyl)-1-(2-nitrophenyl)propane hydrochloride] | −136 | −30 | 
COc1cc2c(cc1OC)CC(CN1CCC(=C3c4ccccc4C=Cc4ccccc43)CC1)C2.Cl [Example 287, 2-(4-(5H-Dibenzo[a,d]cyclohepten-5-ylidene)-1-piperidinyl)methyl-5′,6′-dimethoxyindan hydrochloride] | −83 | −16 | 
C1=Cc2ccccc2C(=C2CCN(CCCCCCCCC3CCCCC3)CC2)c2ccccc21.Cl [Example 156, 1-Cyclohexyl-8-(4-(5H-dibenzo[a,d]cyclohepten-5-ylidene)-1-piperidinyl)octane hydrochloride] | −110 | −42 | 
Cl.Nc1cccc2c1CC(CN1CCC(=C3c4ccccc4C=Cc4ccccc43)CC1)C2 (centres unmarked) [Example 330, 4′-Amino-2-(4-(5H-Dibenzo[a,d]cyclohepten-5-ylidene)-1-piperidinyl)methylindan hydrochloride] | −93 | −25 | 
C=CCC(CCN1CCC(=C2c3ccccc3C=Cc3ccccc32)CC1)C(=O)c1ccc(OC)c(OC)c1.Cl (centres unmarked) [Example 276, 2-Allyl-4-(4-(5H-dibenzo[a,d]cyclohepten-5-ylidene)-1-piperidinyl)-3′,4′dimethoxybutyrophenone hydrochloride] | −24 | −1 | 
CN1CCCC(CCCCN2CCC(=C3c4ccccc4C=Cc4ccccc43)CC2)C1.Cl.Cl (centres unmarked) [Example 295, 4-(4-(5H-Dibenzo[a,d]cyclohepten-5-ylidene)-1-piperidinyl)-1-(N-methyl-3-piperidinyl)butane dihydrochloride] |  |  | Decrease in systolic blood pressure (mmHg) time after administration (hour) 0.5 (dose 3 mg/kg i.v. bolus): −36 mmHg; Decrease in systolic blood pressure (mmHg) time after administration (hour) 4 (dose 3 mg/kg i.v. bolus): 1 mmHg
